Laboratory results published in US4874776A, “Compound having mucus regulating and elastase-inhibitory activities, for the therapy of pulmonal emphysema and pulmonal fibrosis” (Yason S.r.l., priority 1988, dated 1989).

Tests used:
[1] = test system: hepatic intoxication induced by carbon tetrachloride; assay: Hepato-protecting activity, hepatic intoxication induced by carbon tetrachloride; format: in vivo, rat; details: male Wistar rats, 100 mg/kg i.p.; for GPT x ± es: 15 minutes before CCl4 0,15 ml/kg oral, 24 hours; for GPT % INHIBITION VS. CONTROLS: CCl4 0,15 ml/kg
Protocol: Hepato-protecting activity of YS 795 was evaluated in comparison with N-acetylcystein, by means of the test of hepatic intoxication induced by carbon tetrachloride, according to the method by Sanna et al. (Experientia, 32 (1), 91, 1976).
Male Wistar rats (268-346 g body weight) fasted for 18 hours, with water "ad libitum", were used.
YS 795 and N-acetylcystein were administered intraperitoneally at the dose of 100 mg/kg, whereas the control group received the only carrier.
15 minutes after the drug administration, the animals were treated orally with 0,15 ml/kg of carbon tetrachloride.
After 24 more hours, the animals were killed by bleeding after ether anesthesia.

[2] = test system: secretion of respiratory tract; assay: Bronchosecretagogue activity, sodium fluoresceine test; format: in vivo, rat; details: male Wistar rats, 100 mg/kg; for SODIUM FLUORESCEINE: 10 animals
Protocol: Bronchosecretagogue activity was evaluated by means of sodium fluoresceine test, according to the procedure by Mawatari ("Experimental studies on the expectorant action of several drugs" Kagoshima Kaigaken Igaken Zasshi 27, 561, 1976), said test consisting in determining the sodium fluoresceine amount eliminated from respiratory tract: the higher the secretion, the higher the amount of sodium fluoresceine eliminated. Accordingly, any compound increasing the secretion of respiratory tract causes an increase in sodium fluoresceine elimination, which can easily be calculated.
Male Wistar rats (100-200 g body weight), fasted for 18 hours, with water "ad libitum", were administered with YS 795 at the dose of 100 mg/kg and, by comparison, with carboxymethyl cystein at equiponderal doses, by the oral route.
30 minutes after the treatment, sodium fluoresceine was injected subcutaneously and 30 minutes after the animals were killed by bleeding. The whole respiratory tree was then withdrawn and the percentage of sodium fluoresceine present was evaluated.

[3] = test system: patients affected by chronic bronchitis; assay: Clinical study in patients affected by chronic bronchitis (tolerability and mucus regulating activity); format: in vivo, human; details: 3×300 mg capsules a day
Protocol: YS 795 in capsules was administered to hospitalized patients affected by chronic bronchitis, in order to test tolerability and mucus regulating activity.
10 patients, 5 males and 5 females, of 65-70 years age, smokers or ex-smokers, were treated with YS 795 administered at a dose of 3×300 mg capsules a day, in the morning, at noon and in the night, with full stomach, for a period of 4 weeks.
All drugs having mucolytic, bronchodynamic, steroidal and balsamic activities were excluded during the observation period, whereas the "routine" therapy of concomitant diseases, based on administration of diuretic, hypotensive, antidiabetic, vasodilating and antibiotic drugs, was continued.
Before and after the treatment, tests were carried out to evaluate possible side-effects of YS 795 on hemopoietic, hepatic and renal functions; heart rate and arterial pressure were further checked during the treatment.

elastase = assay: Elastase-inhibitory activity; format: biochemical
Protocol: Inhibition of elastase activity by YS 795 was evaluated according to the method by D. A. Hall, S. El Ridi (Methods of connective tissue research, Ioyson-Bruvvers Ltd.; Oxford--1976) and by R. M. Senior et al. (Elastine and elastic Tissue, Plenum Press, pp. 249-254, New York--1977).

[4] = Pharmacokinetics, plasma and tissue concentrations by gaschromatographic analysis; format: in vivo; details: rat
Protocol: Male CD-COBS rats weighing 200-220 g were used, treated with YS 795 and 4-thiazolidine-carboxylic acid by the oral or intraperitoneal route, in equimolecular amounts (YS 795=795=100 mg/kg; thiazolidine-carboxylic acid =65 mg/kg).
One hour after the treatment the animals were killed by beheading; blood was collected in heparinized test-tubes and centrifuged for 10 minutes at 3500 rpm to prepare plasma. The tissues (liver, lung, kidney and brain) were homogenized in 4 volumes of 0,05M phosphate buffer.
Tissular concentrations were studied by gaschromatographic analysis.

[5] = Solubility of the obtained compound; format: physicochemical
collagenase = assay: Collagenase inhibitory activity; format: biochemical; details: read-out: IC50 collagenase inhibition
Protocol: The inhibition of collagenase by means of YS 795 was evaluated according to the method by C. L. Hu, G. Crombie, C. Franzeblau (Analyt., Biochem. 88, 638, 1978).

[6] = test system: emphysema induced by porcine pancreatic elastase; assay: Emphysema induced by porcine pancreatic elastase in the hamster; format: in vivo
Protocol: Emphysema induced by porcine pancreatic elastase in the hamster.
Capability of YS 795 in preventing emphysema caused by instillation of elastase was studied according to the method by Stone P. J. et al. (Am. Rev. Respir. Dis.; 124/1; 1981) and by Yu et al. ("Elastin and elastic tissues"; Plenum Press; New York; 1977).
16 Hamsters weighing 100-120 g were divided in 4 groups of 4 animals each (Groups A, B, C and controls) and treated as follows:
Group A: in tratracheal instillation of 0,1 mg of porcine pancreatic elastase 1 hour after administration of 100 mg/kg of YS 795.
Group B: YS 795 was administered 1 hour after elastase instillation.
Group C: YS 795 was administered 4 hours after elastase instillation.
Controls: physiological saline was administered 1 hour after elastase instillation.
At set times (72 hours and 12 days), the animals were killed after intraperitoneal anesthesia with pentobarbital. Lungs were intubated through trachea and fixed.
Morphological and morphometrical analysis of the pulmonal sections were then carried out under a microscope.

[7] = Acute toxicity (LD50, Litchfield and Wilcoxon) in the rat; details: in vivo, read-out: DL50 (the source's name)
Protocol: (§1) Acute toxicity of YS 795 was calculated in the rat and the mouse after both oral and intraperitoneal administrations.
(§2) LD50 was determined according to the method of Litchfield and Wilcoxon (J. Pharmacol. Exp. Therap. 96, 99-118, 1949).

[8] = Acute toxicity (LD50, Litchfield and Wilcoxon) in the mouse; details: in vivo, read-out: DL50 (the source's name)
Protocol: as §1, §2

## CC(=O)N[C@@H](CS)C(=O)O [N--ACETYLCYSTEIN, N-acetylcystein, reference compound]
[1]
  GPT x ± es: 168,2 ± 8,68 U/L
  GPT % INHIBITION VS. CONTROLS: 52,9%

## NC(CSCC(=O)O)C(=O)O (stereo not drawn) [S--CARBOXYMETHYLCYSTEIN, reference compound]
[2]
  SODIUM FLUORESCEINE % Δ vs. controls: 80,6%
  SODIUM FLUORESCEINE: 0,56 μg/ml

## CCOC(=O)N1CSCC1C(=O)O (stereo not drawn) [YS 795, N-carbethoxy-4-thiazolidine-carboxylic acid]
[3]; patients with chronic bronchitis, 4 weeks
  Fluidifying and mucus regulating activities: good fluidifying and mucus regulating activities
[3]; patients, 4 weeks
  Effects on arterial pressure and heart rate: no clinically significant effects
  Tolerability at gastric level: well tolerated
[3]; patients, before and after 4 weeks
  Effect on hemopoietic, hepatic and renal functions (laboratory tests): does not affect hemopoietic, hepatic and renal functions
elastase
  IC50: 11 mM
[4]
  Metabolism: subsequently metabolized to n-thiazolidine-carboxylic acid
  Time till which the compound is still found as such: 12 h
[4]; after the administration
  Time of plasmatic concentration peak: between the first and the second hour
[4]; equimolecular amounts (100 mg/kg vs. 65 mg/kg)
  Drug amounts in liver and lungs in comparison with thiazolidine-carboxylic acid: remarkanly higher
[4]; found as such and as thiazolidine-carboxylic derivative
  Tissue distribution (liver, lung, kidney, brain): present in all the examined tissues
[4]; oral and intraperitoneal route, 100 mg/kg
  Absorption: well adsorbed by both oral and intraperitonel route
[5]; common organic solvents
  Solubility in common organic solvents: soluble in common organic solvents
[5]; water
  Solubility in water: unsoluble in water
[2]
  SODIUM FLUORESCEINE % Δ vs. controls: 70,9%
  SODIUM FLUORESCEINE: 0,53 μg/ml
collagenase
  IC50: 15 mM
[6]; administered 1 hour before vs. 1 or 4 hours after elastase instillation
  Effect of the time of administration on the antiemphysema effect: more marked when YS 795 was administered before elastase instillation
[6]; hamster, 100 mg/kg, 0,1 mg elastase intratracheal, 72 hours and 12 days
  Antagonism of pulmonal emphysema (morphological and morphometrical analysis of pulmonal sections): can antagonize pulmonal emphysema induced by porcine pancreatic elastase
[7]; ip, female
  LD50: 420 mg/kg
[7]; ip, male
  LD50: 415 mg/kg
[7]; po, os, male
  LD50: > 4000 mg/kg
[1]
  GPT x ± es: 220 ± 84,47 U/L
  GPT % INHIBITION VS. CONTROLS: 38,4%
[8]; ip, female
  LD50: 372 mg/kg
[8]; ip, male
  LD50: 380 mg/kg
[8]; po, os, male
  LD50: > 4000 mg/kg
